Measured values reported in patent US20110251135A1, “INHIBITORS OF PERITONEAL SEEDING OF CANCER CELLS” (University of Utah Research Foundation, priority 2008, published 2011).

Legend:
[1] = system: transiently suspended HT-29 cells; experiment: Apoptosis of transiently suspended cells during readhesion (annexin V assay); type: cell-based, human
Procedure: HT-29 cells that were either transiently suspended with trypsin-EDTA or adherent for three days, were treated at time zero with DMSO or 10-100 μM BAY 11-7085. The percent of apoptotic cells was determined using the annexin V flow cytometry assay and graphed versus the dose of BAY 11-7085. FIG. 4B are photographs showing DLD-1, FIG. 4C are photographs showing HCT-116, and FIG. 4D are photographs showing HT-29 cells that were transiently suspended in trypsin-EDTA and allowed to readhere to glass coverslips for 1-24 hours. The cells were fixed and immunostained with an NF-κB p65 subunit monoclonal antibody.
(§1) The transiently suspended cells were lysed and allowed to bind to DNA oligonucleotides, containing the NF-κB consensus binding site, that were immobilized to 96-well plates. NF-κB protein bound to the oligonucleotides was detected by an antibody to the p65 subunit that only recognized p65 that is bound to DNA. The positive control was HeLa cells that were stimulated with TNFα. A control was performed using excess free NF-κB oligonucleotides (Competitor). […] NF-κB binding activity was determined by the TransAM assay as in FIG. 5A. […] The data shown represent typical results of three separate experiments. […] An immunoblot for COX-2 was performed.
The percentage of apoptotic cells was determined using the annexin V assay. The data points represent the averages of three experiments; bars, +−.SE. E. DLD-1 and F. HT-29 cells were transduced with an adenovirus containing the IκB super-repressor construct. After 3 days, the cells were transiently suspended and allowed to readhere in the presence of subapoptotic concentrations of BAY 11-7085 or DMSO (vehicle) for 8 hours. The data are expressed as fractions of cells surviving compared with the controls (no adenovirus) and were quantitatively determined by staining the remaining adherent cells with crystal violet.
Single cell suspensions were plated at 100,000 cells per well in 24-well plates in media containing DMSO, BAY 11-7082, BAY 11-7085, or MG-132 for 8-24 hours in an incubator. Alternatively, DMSO, BAY 11-7082, BAY 11-7085, or MG-132 were added to cells that were confluent and adherent for several days. The nonadherent cells were aspirated off with the media and spun for 3 minutes at 2,000 rpm in 15 mL polypropylene tubes. The adherent cells were washed twice with PBS, dispersed in trypsin, and spun down for 3 minutes at 2,000 rpm in 15 mL polypropylene tubes. The nonadherent and adherent cells were resuspended in 1× binding buffer (10 mM HEPES/NaOH, pH 7.4, 140 mM NaCl, and 2.5 mM CaCl2) to a final concentration of 10^6 cells/mL. 100 μL of the cell solution were transferred to a 5 mL culture tube and incubated with 5 μL of annexin V-FITC-conjugated monoclonal antibody (Pharmingen) and 10 μl, of propidium iodide (from a 50 μg/mL stock solution made in PBS) in the dark at 25° C. for 15 minutes. 400 μL of binding buffer was added to each tube and the cells were analyzed by flow cytometry immediately. The percent of apoptosis was determined as the percent of annexin V-positive, propidium iodide-negative cells of the total cells counted.
Various concentrations of BAY 11-7085 were added to HT-29 cells that were transiently suspended in trypsin-PBS for approximately 15 minutes before replating. The transiently suspended cells were quickly allowed to readhere in order to prevent anoikis. Alternatively, BAY 11-7085 was added to adherent HT-29 cell monolayers.

293-COX-2 cells = experiment: Apoptosis of 293-COX-2 cells with or without ponasterone induction of COX-2; type: cell-based; settings: 8 hours of exposure
Procedure: as §1
DLD-1, HCT-116, and HT-29 colon cancer cell lines were obtained from the ATCC collection and were cultured in Dulbecco's Modification of Eagle's Medium (DMEM) supplemented with 10% fetal bovine serum, glutamine, penicillin, and streptomycin. […]
Single cell suspensions were plated at 100,000 cells per well in 24-well plates in media containing DMSO, BAY 11-7082, BAY 11-7085, or MG-132 for 8-24 hours in an incubator. […] 400 μL of binding buffer was added to each tube and the cells were analyzed by flow cytometry immediately. The percent of apoptosis was determined as the percent of annexin V-positive, propidium iodide-negative cells of the total cells counted. […]

HT-29 cells = experiment: One-hour cell adhesion assay (crystal violet); type: cell-based, human; settings: adherent HT-29 pretreated for three days with various concentrations, then one-hour adhesion assay
Excerpt: FIG. 3 is a group of graphs that show NF-κB inhibitors cause apoptosis of colon cancer cells. […] The data points represent the average percent of annexin V-positive, propidium iodide-negative cells (of the total cells counted) from triplicate experiments. The error bars represent the standard error of the means. […] The results shown are a graphic representation of individual flow cytometry results expressed as the percentage of cells that were annexin V-positive of those that excluded propidium iodide. […] An immunoblot of the lysates for cleaved PARP was performed. Each lane represents equal total protein concentrations. […] The cells were allowed to adhere to plastic dishes for 1 hour after which they were washed gently in PBS and stained with crystal violet. The crystal violet stained cells were solubilized in deoxycholate and the absorbance detected in a spectrophotometer at 590 nm. The adherent cells were expressed as a fraction of the controls. Each data point represents the average of triplicate experiments and the error bars the standard errors of the means.
Even though BAY 11-7085 induced a loss of cell adhesion, it was important to show whether HT-29 cells were actually susceptible to anoikis.

[2] = system: DLD-1, HCT-116, HT-29 colon cancer cell lines; experiment: Cell proliferation assay (crystal violet, 96-well); type: cell-based, human; settings: 10 μM, cultured up to 8 days
Procedure: The data points represent the means of triplicate experiments and the error bars the standard errors of the means. […] The percent of apoptotic cells was then determined by the annexin V assay. […] The results shown are typical of two separate experiments. […] Immunoblots were performed for c-IAP-2, TRAF-1, TRAF-2, and FLIP. All lanes contain equal total protein.
For the cell proliferation assay, cells were dispersed and plated at 40,000 cells/well in 96-well dishes. At various days in culture, the cells were gently washed twice with 100 μL/well of ice-cold blocking buffer (1% radioimmunoassay grade BSA in PBS) and twice with 100 μL/well of ice-cold PBS. The cells were fixed for 10 min in 100% ice-cold methanol (100 μL/well), then allowed to air-dry. The cells were stained with 100 μL/well of 0.1% crystal violet in H20 for 10 minutes, then washed gently four times with dd H20 and four times with PBS. The plates were then air-dried completely. The stained cells were then solubilized in 1% sodium deoxycholate, and the plates read at 590 nm in a spectrophotometer. The absorption at 590 nm is proportional to the number of attached cells.

In the case of `CC(C)(C)c1ccc(S(=O)(=O)/C=C/C#N)cc1` [BAY 11-7085, (2E)-3-[4-(tertiarybutylphenyl)sulfonyl]-2-propenenitrile], the “BAY 11-7085-induced apoptosis during readhesion” value ([1]; HT-29 transiently suspended, treated and allowed to readhere, 8 hours) is reported as “showed the same propensity for BAY 11-7085-induced apoptosis”, the “apoptosis of transiently suspended HT-29 cells” value ([1]; all concentrations tested (10-100 μM), cells suspended in trypsin-PBS then replated) is reported as “caused a significant increase in apoptosis” and the apoptosis (293-COX-2 cells; ponasterone-induced 293-COX-2 cells (1 μg/mL, 48 hours)) is reported as “marked increase in BAY 11-7085-induced apoptosis”. The apoptosis (293-COX-2 cells; uninduced 293-COX-2 cells) was “no increase in apoptosis”, the cell adhesion (HT-29 cells) was “significant and rapid inhibition of cell adhesion at high concentrations” and the cell proliferation [2] was “greatly inhibited cell proliferation”.
